Legend:
Human recombinant renin = target: T1, Human recombinant renin (Homo sapiens, UniProt P00797); assay: Inhibition of human recombinant renin (QFRET, buffer); assay type: biochemical; details: buffer: 50 mM MOPS pH 7.4, 100 mM NaCl, 0.002% Tween 20; 37° C., 3 hours
T1 construct: purchased Proteos
T1 sequence (P00797 67-406): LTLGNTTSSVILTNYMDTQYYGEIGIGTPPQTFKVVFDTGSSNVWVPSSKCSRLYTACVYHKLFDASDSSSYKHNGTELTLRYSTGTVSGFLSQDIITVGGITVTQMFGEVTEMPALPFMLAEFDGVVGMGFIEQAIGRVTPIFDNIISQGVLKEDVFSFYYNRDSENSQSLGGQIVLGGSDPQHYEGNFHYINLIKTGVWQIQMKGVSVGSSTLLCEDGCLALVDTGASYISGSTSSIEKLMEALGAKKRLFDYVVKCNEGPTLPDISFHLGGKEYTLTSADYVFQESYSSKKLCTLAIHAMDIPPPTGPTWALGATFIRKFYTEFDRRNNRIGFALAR
Outline: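 Renin at […] final in 50 mM MOPS pH 7.4, 100 mM NaCl, 0.002% Tween 20, with compounds diluted 50-fold from DMSO and 6 μM internally quenched DNP peptide substrate. Incubation 3 h at 37 °C; fluorescence (ex 328/em 388 nm) at 3 h minus t=0 background; IC50 derived.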

[1] = target: T2, recombinant renin in human plasma (Homo sapiens, UniProt P00797); assay: Inhibition of renin in human plasma (QFRET, plasma); assay type: biochemical; details: human EDTA plasma with 1 nM recombinant renin added; 37° C., 1 hour
T2 construct: purchased Proteos
T2 sequence (P00797 67-406): T1 sequence (P00797 67-406)
Outline: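 Cleared human EDTA plasma spiked with 1 nM recombinant renin. Compounds preincubated with the plasma for 10 min at 37 °C, then 6 µM internally quenched FAM peptide added (final 342 mM Tris pH 7.2, 23 mM EDTA) and incubated for 1 h at 37 °C. Fluorescence (490/520 nm) at 1 h minus t=0 gave IC50.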

Row | Compound | IC50 (Human recombinant renin) [nM] | IC50 [1] [nM]
1 | CC(=O)NCCc1ccccc1-c1onc([C@H]2CNCC[C@]2(OC(N)=O)c2ccc(F)c(F)c2)c1Br [Structure 118] | 0.22 | 0.55
2 | COCC(F)(F)COCc1ccc([C@@]2(O)CCNC[C@@H]2c2ccc(-c3ccccc3CCNC(C)=O)cc2C)cn1 [Structure 120] | 0.66 | 1.2
3 | COCC(F)(F)COCc1ccc([C@@]2(O)CCNC[C@@H]2c2ccc(-c3ccccc3CCNC(C)=O)cc2C)nc1 [Structure 123] | 1.2 | 5.6
4 | COC[C@H](C)COCc1ccc([C@@]2(O)CCNC[C@@H]2c2ccc(-c3ccccc3CCNC(N)=O)cc2C)cc1 [Structure 124] | 0.63 | 3.6
5 | COC[C@H](C)COCc1ccc([C@@]2(O)CCNC[C@@H]2c2ccc(-c3ccccc3CCN3CCOC3=O)cc2C)cc1 [Structure 125] | 4.6 | 76
6 | COC[C@H](C)COc1ccc([C@@]2(O)CCNC[C@@H]2c2ccc(-c3ccccc3CCNC(C)=O)cc2C)cc1 [Structure 131] | 1.2 | 18
7 | CC(=O)NCCc1ccccc1-c1ccc([C@H]2CNCC[C@]2(O)c2ccc(OC(F)(F)F)c(F)c2)c(C)c1 [Structure 132] | 0.4 | 18

Compounds with a lower IC50 (Human recombinant renin), results first:

Row | IC50 (Human recombinant renin) [nM] | IC50 [1] [nM] | Compound
8 | 0.15 | 3.6 | COC[C@H](C)COCc1ccc([C@@]2(O)CCNC[C@@H]2c2cnc(-c3ccccc3CCNC(C)=O)cc2C)cc1 [Structure 119]
9 | 0.08 | 0.32 | COCC(F)(F)COCc1ccc([C@@]2(O)CCNC[C@@H]2c2ccc(-c3ccccc3CCNC(C)=O)cc2C)cc1 [Structure 121]
10 | 0.09 | 0.43 | CCOCC(F)(F)COCc1ccc([C@@]2(O)CCNC[C@@H]2c2ccc(-c3ccccc3CCNC(C)=O)cc2C)cc1 [Structure 122]
11 | 0.08 | 0.52 | COC[C@H](C)COCc1ccc([C@@]2(O)CCNC[C@@H]2c2ccc(-c3ccccc3CCNC(C)=O)cc2Cl)cc1 [Structure 126]
12 | 0.03 | 1.3 | COC[C@H](C)COCc1ccc([C@@]2(O)CCNC[C@@H]2c2ccc(-c3ccccc3CCNC(=O)OC)cc2C)cc1 [Structure 127]
13 | 0.07 | 0.57 | COC[C@H](C)COCc1ccc([C@@]2(O)CCNC[C@@H]2c2ccc(-c3ccccc3CCNC(=O)CO)cc2C)cc1 [Structure 128]
14 | 0.05 | 0.44 | COC[C@H](C)COCc1ccc([C@@]2(O)CCNC[C@@H]2c2ccc(-c3ccccc3CCNC(C)=O)cc2C)cc1 [Structure 129]
15 | 0.075 | 3.8 | COC[C@H](C)COCc1ccc([C@@]2(O)CCNC[C@@H]2c2ccc(-c3ccccc3CCNC(C)=O)cc2C)nc1 [Structure 130]

— patent publication US20120035214A1, “RENIN INHIBITORS” (Merck Canada Inc., priority 2009, published 2012)
